Test results: patent publication US10975094B2, “Heterocyclic compounds as RSV inhibitors” (Enanta Pharmaceuticals, Inc., priority 2018, dated 2021)
Read-outs that look alike come from different tables or passages of the source.

Test system: Human RSV-A (“Long” strain)
Experiment: RSV in vitro cytoprotection assay in HEp-2 cells (ATPlite read-out)
Format: cell-based
Conditions: human respiratory syncytial virus
Source text: RSV is a single stranded negative sense RNA virus that causes respiratory tract infections which can be dangerous to infants, the elderly, and immunosuppressed individuals. Currently there is no vaccine, and therapeutic options are both costly and of limited effectiveness. These approved treatments are Ribavirin, and Palivizumab/Synagis (a monoclonal antibody). RSV has two genotypes, A and B, which differ primarily in the structure of the virus' surface “G” attachment protein. Our current primary screen focuses on RSV-A and uses an in vitro cytoprotection assay where compounds are added in 2-fold dilutions to cells which are then subjected to fully replicative viral particles. Cell viability is measured several days later along with separate measurements of compound cytotoxicity. This report focuses on the results of our most recent screening of compounds.
HEp-2 cells, (originally derived from tumors grown in irradiated-cortisonised weanling rats that had been injected with epidermoid carcinoma tissue from a person's larynx, but later found to be indistinguishable from HeLa cells by PCR DNA analysis), were used for the culturing of genotype A, “Long” strain RSV. Flasks were inoculated with RSV and viral stocks were collected once cytopathic effect (CPE) was greater than 90%. Viral stocks in 25% sucrose media were snap frozen using liquid nitrogen to increase viral stability. Viral stock titers were quantified by tissue culture infectious dose 50% (TCID50) using 8,000 cells per well and 3-fold viral dilutions across a 96-well plate, cultured for 4 days.
Following extensive parameter testing, the final assay is run as follows: HEp-2 cells are seeded into the inner 60 wells of a 96-well plate at 8,000 cells per well in a volume of 50 μL using Growth Media (DMEM without phenol red, 1% L-Glut, 1% Penn/Strep, 1% nonessential amino acids, 10% FBS). 2-Fold serial dilutions of control and test compounds are added to the wells in duplicate in a total volume of 25 μL. Viral stock is then added to the wells in a volume of 25 μL, bringing the total volume of each well to 100 μL. Each 96-well plate has a control column of 6 wells with cells and virus but no compound (negative control, max CPE), a column with cells but no compound or virus (positive control, minimum CPE), and a column with no cells or virus or compound (background plate/reagent control). The control wells with cells but no virus are given an additional 25 μL of growth media containing an equal quantity of sucrose as those wells receiving the viral stock in order to keep consistent in media and volume conditions. The outer wells of the plate are filled with 125 μL of growth media to act as a thermal and evaporative moat around the test wells. Following a 4-day incubation period, the plates are read using ATPlite (50 μL added per well), which quantifies the amount of ATP (a measure of cell health) present in each well. Assay plates are read using the Envision luminometer. In parallel, cytotoxicity is examined on an additional 96-well plate treated in an identical manner, but substituting the 25 μL of viral stock for 25 μL of growth media. […] EC50 ranges are as follows: A<0.1 μM; B 0.1-0.5 μM; C>0.5 μM

[1] = 96 h, HEp-2 cells, genotype A “Long” strain RSV, 4-day incubation, ATPlite, read-out: Human RSV-A (“Long” strain) EC50

EC50 [1] [nM]	SMILES	EC50 (HEp-2) [nM]
< 100	Cc1cnc(N2CC3(CCOCC3)C2)c(C(=O)Nc2ccc(C(=O)N3CCc4cc(C(=O)c5nc6c(F)cccc6[nH]5)sc4-c4ncccc43)cc2)c1 [Example 26]	
< 100	Cc1cnc(N2CC3(CCOCC3)C2)c(C(=O)Nc2ccc(C(=O)N3CCc4cc(C(=O)c5nccn5C)sc4-c4ccc(F)cc43)cc2)c1 [Example 1]	
< 100	Cc1cnc(N2CC3(CCOCC3)C2)c(C(=O)Nc2ccc(C(=O)N3CCc4cc(C(=O)c5ncc(C)[nH]5)sc4-c4ccc(F)cc43)cc2)c1 [Example 9]	
< 100	Cc1cnc(N2CC3(CCOCC3)C2)c(C(=O)Nc2ccc(C(=O)N3CCc4cc(C(=O)c5nc6ccccc6[nH]5)sc4-c4ccccc43)cc2)c1 [Example 11]	
	O=C(Nc1ccccc1F)N[C@H]1N=C(c2ccccc2)c2ccccc2NC1=O [RSV-604, reference compound]	~2400
< 100	Cc1cnc(N2CC3(CCOCC3)C2)c(C(=O)Nc2ccc(C(=O)N3CCc4cc(C(=O)c5nc6c(F)cccc6[nH]5)oc4-c4ccccc43)cc2)c1 [Example 16]	
< 100	Cc1cnc(N2CC3(CCOCC3)C2)c(C(=O)Nc2ccc(C(=O)N3CCc4cc(C(=O)c5nc6ccccc6o5)sc4-c4ccc(F)cc43)cc2)c1 [Example 30]	
< 100	Cc1cnc(N2CC3(CCOCC3)C2)c(C(=O)Nc2ccc(C(=O)N3CCc4cc(C(=O)c5nc(C#N)c[nH]5)sc4-c4ccc(F)cc43)cc2)c1 [Example 32]	
< 100	Cc1cnc(N2CC3(CCOCC3)C2)c(C(=O)Nc2ccc(C(=O)N3CCc4cc(C(=O)c5ncc(C)[nH]5)oc4-c4ccccc43)cc2)c1 [Example 14]	
< 100	Cc1cnc(N2CC3(CCOCC3)C2)c(C(=O)Nc2ccc(C(=O)N3CCc4cc(C(=O)c5ncc6ccccn56)sc4-c4ccc(F)cc43)cc2)c1 [Example 29]	
< 100	Cc1cnc(N2CC3(CCOCC3)C2)c(C(=O)Nc2ccc(C(=O)N3CCc4cc(C(=O)c5[nH]nnc5C)sc4-c4ccc(F)cc43)cc2)c1 [Example 36]	
> 500	Cc1cnc(N2CC3(CCOCC3)C2)c(C(=O)Nc2ccc(C(=O)N3CCc4cc(C(=O)c5ccccc5C)sc4-c4ccccc43)cc2)c1 [Example 38]	
< 100	Cc1cnc(N2CC3(CCOCC3)C2)c(C(=O)Nc2ccc(C(=O)N3CCc4cc(C(=O)c5cc(C)n[nH]5)sc4-c4ccc(F)cc43)cc2)c1 [Example 35]	
100 to 500	Cc1cnc(N2CC3(CCOCC3)C2)c(C(=O)Nc2ccc(C(=O)N3CCc4cc(C(=O)c5ccccc5F)sc4-c4ccccc43)cc2)c1 [Example 39]	
< 100	Cc1cnc(N2CC3(CCOCC3)C2)c(C(=O)Nc2ccc(C(=O)N3CCc4cc(C(=O)c5nc6ncccc6[nH]5)sc4-c4ccc(F)cc43)cc2)c1 [Example 3]	
< 100	Cc1cnc(N2CC3(CCOCC3)C2)c(C(=O)Nc2ccc(C(=O)N3CCc4cc(C(=O)c5nc6ccccc6n5C)oc4-c4ccccc43)cc2)c1 [Example 18]	
< 100	Cc1cnc(N2CC3(CCOCC3)C2)c(C(=O)Nc2ccc(C(=O)N3CCc4cc(C(=O)c5nc6ccccc6[nH]5)sc4-c4ccc(F)cc43)cc2)c1 [Example 8]	
< 100	Cc1cnc(N2CC3(CCOCC3)C2)c(C(=O)Nc2ccc(C(=O)N3CCc4cc(C(=O)c5nc6c([nH]5)CCCC6)oc4-c4ccccc43)cc2)c1 [Example 17]	
< 100	Cc1cnc(N2CC3(CCOCC3)C2)c(C(=O)Nc2ccc(C(=O)N3CCc4cc(C(=O)c5nc(C)c(C)[nH]5)sc4-c4ccc(F)cc43)cc2)c1 [Example 4]	
> 500	Cc1ccc(C(=O)Nc2ccc(C(=O)N3CCc4c(sc(C(=O)c5nc6ccccc6[nH]5)c4F)-c4ccccc43)cc2)c(N2CC3(CCOCC3)C2)n1 [Example 27]	

EC50 [1] [nM]	SMILES	EC50 (HEp-2) [nM]
< 100	Cc1ccc(C(=O)Nc2ccc(C(=O)N3CCc4c(sc(C(=O)c5nccn5C)c4F)-c4ccccc43)cc2)c(N2CC3(CCOCC3)C2)n1 [Example 28]	
100 to 500	Cc1ccc(C(=O)Nc2ccc(C(=O)N3CCc4cc(C(=O)c5[nH]nnc5C)sc4-c4ccc(F)cc43)cc2)c(N2CC3(CCOCC3)C2)n1 [Example 37]	
100 to 500	Cc1cnc(N2CC3(CCOCC3)C2)c(C(=O)Nc2ccc(C(=O)N3CCc4cc(C(=O)c5nc6ccccc6n5C)sc4-c4ccc(F)cc43)cc2)c1 [Example 2]	
100 to 500	Cc1cnc(N2CC3(CCOCC3)C2)c(C(=O)Nc2ccc(C(=O)N3CCc4cc(C(=O)c5nnc(C)o5)sc4-c4ccc(F)cc43)cc2)c1 [Example 31]	
< 100	Cc1cnc(N2CC3(CCOCC3)C2)c(C(=O)Nc2ccc(C(=O)N3CCc4cc(C(=O)c5nc6ccccc6[nH]5)oc4-c4ccccc43)cc2)c1 [Example 12]	
> 500	Cc1cnc(N2CC3(CCOCC3)C2)c(C(=O)Nc2ccc(C(=O)N3CCc4cc(C(=O)c5nc6c(C)cccc6[nH]5)sc4-c4ncccc43)cc2)c1 [Example 20]	
100 to 500	Cc1cnc(N2CC3(CCOCC3)C2)c(C(=O)Nc2ccc(C(=O)N3CCc4cc(C(=O)c5ncccc5C)sc4-c4ccccc43)cc2)c1 [Example 40]	
100 to 500	Cc1cnc(N2CC3(CCOCC3)C2)c(C(=O)Nc2ccc(C(=O)N3CCc4cc(C(=O)c5nc6cc(F)ccc6[nH]5)sc4-c4ccc(F)cc43)cc2)c1 [Example 5]	
< 100	Cc1cnc(N2CC3(CCOCC3)C2)c(C(=O)Nc2ccc(C(=O)N3CCc4cc(C(=O)c5nc6c(C)cccc6[nH]5)sc4-c4ccc(F)cc43)cc2)c1 [Example 6]	
< 100	Cc1cnc(N2CC3(CCOCC3)C2)c(C(=O)Nc2ccc(C(=O)N3CCc4cc(C(=O)c5nc6c(F)cccc6[nH]5)sc4-c4ccc(F)cc43)cc2)c1 [Example 7]	
< 100	Cc1cnc(N2CC3(CCOCC3)C2)c(C(=O)Nc2ccc(C(=O)N3CCc4cc(C(=O)c5nccn5C)sc4-c4ncccc43)cc2)c1 [Example 19]	
< 100	Cc1cnc(N2CC3(CCOCC3)C2)c(C(=O)Nc2ccc(C(=O)N3CCc4cc(C(=O)c5nc6c(C)cccc6[nH]5)oc4-c4ccccc43)cc2)c1 [Example 15]	
100 to 500	Cc1cnc(N2CC3(CCOCC3)C2)c(C(=O)Nc2ccc(C(=O)N3CCc4cc(C(=O)c5nc6ccccc6n5C)sc4-c4ncccc43)cc2)c1 [Example 25]	
100 to 500	Cc1cnc(N2CC3(CCOCC3)C2)c(C(=O)Nc2ccc(C(=O)N3CCc4cc(C(=O)c5nc(C6CC6)c[nH]5)sc4-c4ccc(F)cc43)cc2)c1 [Example 10]	
< 100	Cc1cnc(N2CC3(CCOCC3)C2)c(C(=O)Nc2ccc(C(=O)N3CCc4cc(C(=O)c5nc(C(F)(F)F)c[nH]5)sc4-c4ccc(F)cc43)cc2)c1 [Example 33]	
< 100	Cc1cnc(N2CC3(CCOCC3)C2)c(C(=O)Nc2ccc(C(=O)N3CCc4cc(C(=O)c5nc6c([nH]5)CCC6)sc4-c4ncccc43)cc2)c1 [Example 24]	
100 to 500	Cc1cnc(N2CC3(CCOCC3)C2)c(C(=O)Nc2ccc(C(=O)N3CCc4cc(C(=O)c5cc(C(F)(F)F)n[nH]5)sc4-c4ccc(F)cc43)cc2)c1 [Example 34]	
< 100	Cc1cnc(N2CC3(CCOCC3)C2)c(C(=O)Nc2ccc(C(=O)N3CCc4cc(C(=O)c5nc6ccccc6[nH]5)sc4-c4ncccc43)cc2)c1 [Example 21]	
< 100	Cc1cnc(N2CC3(CCOCC3)C2)c(C(=O)Nc2ccc(C(=O)N3CCc4cc(C(=O)c5nc6c([nH]5)CCCC6)sc4-c4ncccc43)cc2)c1 [Example 23]	
< 100	Cc1cnc(N2CC3(CCOCC3)C2)c(C(=O)Nc2ccc(C(=O)N3CCc4cc(C(=O)c5nc(C)c(C)[nH]5)oc4-c4ccccc43)cc2)c1 [Example 13]	
